Earlier results as cited in patent publication US9457059B2, “Compositions and methods for treating renal failure” (La Jolla Pharmaceutical Company, priority 2013, dated 2016).

Experiments:
[1] = system: patients with cirrhosis and ascites
[2] = system: patients with cirrhosis and ascites; remark: listed apart in the source

Asp-Arg-Val-Tyr-Ile-His-Pro-Phe (DRVYIHPF) [angiotensin II, peptide hormone that regulates blood pressure via vasoconstriction and sodium reabsorption]
tolerability ([1]; use in patients with cirrhosis and ascites): well-tolerated

Asp-Arg-Val-Tyr-Ile-His-Pro-Phe [angiotensin II, peptide hormone that regulates blood pressure via vasoconstriction and sodium reabsorption]
increase in urine output and sodium excretion compared with norepinephrine ([1]; Laragh et al., versus norepinephrine): much more pronounced than those produced by norepinephrine | natriuresis and urine output ([1]; patients with cirrhosis and ascites, no renal failure): induces marked natriuresis and urine output | increase in sodium excretion compared with norepinephrine ([1]; second study, Ames et al., versus norepinephrine): greater increase in sodium excretion compared to norepinephrine

C[C@H](CS)C(=O)N1CCC[C@H]1C(=O)O [captopril]
sodium excretion and urinary output [2]: significantly reduced both sodium excretion and urinary output
